# Test results reported in patent US20020132276A1, “FACS method for detecton of GPIIb/IIIa inhibitor dependent activators in plasma samples” (priority 1999, published 2002).
# Entries after “also recorded” stand apart in the source; their conditions may differ.
# How the values were obtained:
# platelet CD62 [1] = experiment: Detection of ADP as a GPIIb/IIIa DDPAS by DDPASFCA; type: cell-based, human; conditions: ADP 0 μM
# Procedure: Adenosine diphosphate (ADP) was evaluated as a possible DDPAS as follows: Compound A (final concentration 1 μM) or vehicle was added to 25 μL of freshly prepared PRP in wells of a 96-well microtiter plate. Another set of wells received vehicle. After 10 minutes, 2.5 μL of from each well was transferred to microtiter wells containing only 20 μL of anti-CD62-PE. After incubation for 30 minutes, samples were analyzed by flow cytometry as in Example 1.
# platelet CD62 [2] = experiment: Depletion of DDPAS from plasma by platelets with Compound A, and EDTA elution, read in the DDPASFCA; type: cell-based, human
# Procedure: Thrombocytopenic patient plasma was processed as described in Example 1 and Delta fluorescence is shown (FIG. 3, panel A) as a function of volume percent patient plasma. After treatment of 099016 plasma with platelets in the presence and in the absence of compound A, samples were evaluated in the DDPASFCA at a 1/3 dilution using fresh donor PRP.
# Thrombocytopenic patient 099016 plasma was evaluated in the DDPASFCA as in Example 1, with the modification that 10 μL of sample, or a sample of 099016 plasma diluted into DDPASFCA-negative plasma, was combined with 20 μL donor PRP (final platelet concentration=1×10^8/mL). The signal in the DDPASFCA was proportional to the patient plasma dilution. Next, the ability of platelets, a physiologically relevant source of GPIIb/IIIa, to remove certain kinds of DDPASs was tested. DDPAS positive thrombocytopenic plasma 099016 (70 μl) was treated with fresh donor PRP (140 μL, final platelet concentration 3×10^8/mL) for 60 minutes in the presence or the absence of compound A (1 μM). Platelets were removed by centrifugation at 1000×G for 5 minutes, and the resulting plasma samples were tested in the DDPASFCA as in Example 1, with the modification that 3 μL of sample was combined with 27 μL donor PRP (final platelet concentration=1×10^8/mL) in the presence or the absence of Compound A (1 μM). […] The samples were then evaluated in the DDPASFCA.
# platelet CD62 [3] = experiment: Modified DDPASFCA using the donor's own platelets; type: cell-based; conditions: healthy human donor, Compound A 200 nM
# Procedure: The occurrence of DDPASs in the general population was tested by a modification of the DDPASFCA using the donor's own platelets to conduct the assay. PRP (100 μL) from healthy human donors was treated with Compound A (200 nM) or vehicle for 90 minutes. A 5μL sample was transferred to microtiter wells containing 20 μL anti-CD62-PE and samples analyzed by flow cytometry as described in Example 1. Positive samples (defined as Delta PE fluorescence of >0) were retested using the method of Example 1 (heterologous donor). 8% of donors were weakly positive (delta between 10 and 25). […] Thus, the prevalence and titer of pre-existing DDPASs is relatively low in the general population.
compound,measurement,setting,value
"CCCCOC(=O)N[C@@H](CNC(=O)C[C@H]1CC(c2ccc(C(=N)N)cc2)=NO1)C(=O)O [Compound A, 2(S)-[(n-butoxycarbonyl)amino]-3-[[[3-[4-(aminoiminomethyl)phenyl]isoxazolin-5(R)-yl]methylcarbonyl]amino]propionic acid]",+ compound Med F12,platelet CD62 [1]; Compound A 1 μM alone,11
same,Delta Med F12,platelet CD62 [1]; with minus without Compound A 1 μM,−1
same,residual DDPAS in plasma after treatment with platelets,"platelet CD62 [2]; patient 099016 plasma, donor PRP 60 minutes, Compound A 1 μM",depleted of the DDPAS; also recorded: specifically depleted the DDPAS
same,DDPAS in EDTA eluate of platelets,"platelet CD62 [2]; platelets treated with 099016 plasma with Compound A, 9 mM EDTA, 37° C., 2 hours, versus DPC43 and DPC44",substantially positive; also recorded: elevated DDPAS
same,Delta PE fluorescence of the significantly positive sample,platelet CD62 [3],566
